We go through seven compounds from patent US7906541B2, “Process to prepare new substituted 1H-benzo[d]imidazol-2(3H)-ones, new intermediates and their use as BACE 1 inhibitors” (Universite Paul Cezanne-Aix Marseille III, priority 2008, dated 2011).

`O=c1[nH]c2ccccc2n1Cc1ccccc1` [Example 11, 1-benzyl-1,3-dihydro-2H-benzimidazol-2-one] had a melting point of 194 °C.

`CS/C=C(/C)n1c(=O)n(C)c2ccc(C(F)(F)F)cc21` [Example 9, 1-methyl-3-[(1Z)-1-(methylsulfanyl)prop-1-en-2-yl]-5-(trifluoromethyl)-1,3-dihydro-2H-benzimidazol-2-one]: the melting point was found to be 194 °C.

As for `CS/C=C(/C)n1c(=O)n(C)c2ccccc21` [Example 1, 1-methyl-3-[(1Z)-1-(methylsulfanyl)prop-1-en-2-yl]-1,3-dihydro-2H-benzimidazol-2-one], the melting point is 66 °C (dec.).

Consider `CS/C=C(/C)n1c(=O)n(C)c2cc(F)ccc21` [Example 10, 5-fluoro-3-methyl-1-[(1Z)-1-(methylsulfanyl)prop-1-en-2-yl]-1,3-dihydro-2H-benzimidazol-2-one], for which the melting point came to 110 °C.

In turn, `CCn1c(=O)n(/C(C)=C\SC)c2ccccc21` [Example 5, 1-ethyl-3-[(1Z)-1-(methylsulfanyl)prop-1-en-2-yl]-1,3-dihydro-2H-benzimidazol-2-one] showed a melting point of 74 °C.

For `CS/C=C(/C)n1c(=O)n(Cc2ccccc2)c2ccccc21` [Example 2, 1-benzyl-3-[(1Z)-1-(methylsulfanyl)prop-1-en-2-yl]-1,3-dihydro-2H-benzimidazol-2-one], the melting point is 227 °C (dec.).

The compound `CS/C=C(/C)n1c(=O)n(Cc2cc(C(F)(F)F)cc(C(F)(F)F)c2)c2ccccc21` [Example 6, 1-[3,5-bis(trifluoromethyl)benzyl]-3-[(1Z)-1-(methylsulfanyl)prop-1-en-2-yl]-1,3-dihydro-2H-benzimidazol-2-one] returned a melting point of 148 °C.
